From article PMC10354055, “An optimized Nurr1 agonist provides disease-modifying effects in Parkinson’s disease models” (Nature Communications, 2023)
Where “and” joins values, the source holds several entries; their conditions need not be identical. Identical values can stand only once.

What was measured:
Nurr1 mRNA = Nurr1 mRNA level, qRT-PCR, MN9D cells; type: cell-based, mouse; conditions: for Relative Nurr1 mRNA expression (fold of Cont.): Fig. S4f; for Relative Nurr1 mRNA expression (fold of +GFP Basal): Fig. S4h
Experimental: Total RNA was extracted using the GeneJET RNA Purification Kit (Thermo Fisher Scientific) and 100 ng of RNA was subjected to cDNA synthesis using Invitrogen Superscript cDNA Synthesis Kit (Invitrogen) according to the manufacturer’s protocol. qRT-PCR was performed using a CFX Connect Real-Time System (Bio-Rad) in a 20 μl volume mixture containing 2X SsoAdvanced Universal SYBR Green Supermix (Bio-Rad), 100 ng/μl of forward and reverse primers, and 1 μl of cDNA sample. Gene expression levels were quantified by the 2^∆∆CT method (Ct of target gene—Ct of glyceraldehyde-3-phosphate dehydrogenase (GAPDH). The following primers were used for qRT-PCR: TH forward: 5′-[…]-3′, reverse: 5′-[…]-3′; DAT forward: 5′-[…]-3′, reverse: 5′-[…]-3′; AADC forward: 5′-[…]-3′, reverse: 5′-[…]-3′; VMAT2 forward: 5′-[…]-3′, reverse: 5′-[…]-3′; c-Ret forward: 5′-[…]-3′, reverse: 5′-[…]-3′; TNFα forward: 5′-[…]-3′; reverse: 5′-[…]-3′; GAPDH, forward 5′-[…]-3′, reverse 5′-[…]-3′.
Lenti-GFP, -αSyn^WT, and -αSyn^A53T viruses were generated separately by co-transfecting each shuttle plasmid with lentivirus packaging plasmids into HEK293T cells using lipofectamine 2000 (Invitrogen). Briefly, 2 μg each FUW inducible shuttle plasmid, 2 μg FUW-rtTA, 2 μg psPax2 and 1.5 μg MD2.G were mixed and transfected into HEK293T cells. After 48 h, viral supernatants were collected and centrifuged at 1000g for 10 min, and subsequently filtered through a 0.45 μm filter. Lentiviruses were transduced into MN9D cells with 8 μg/ml of polybrene and the viral supernatant was removed and replaced with fresh medium a day after transduction.

N27-A cells = assay: Lysosomal pH detection, LysoSensor, N27-A cells; type: cell-based, rat; conditions: Figure 3d; individual replicates
Experimental: Lysosomal pH was detected as previously described. Briefly, after incubation in EBSS containing BafA1 (10 nM), CQ (20 µM), or 4A7C-301 (1 µM) for 6 h, HeLa and N27-A cells were treated with LysoSensor™ Yellow/Blue DND-160 (5 µM; Life Technology) for 45 min, followed by 2 washes in HEPES buffer (Gibco). Fluorescence images at excitation/emission wavelengths of 360/460 nm and 470/525 nm were taken immediately using a 400 nm dichroic mirror (KEYENCE). The ratio of fluorescence intensities (F360/470) were measured and calculated manually using ImageJ for each cell. The average pH from measuring 5 cells from each of three wells for each treatment group in both HeLa and N27-A cells was calculated by fitting the F360/470 values to a plotted pH calibration curve with KCl/NaCl buffered from pH 3.5 to 7.0 using GraphPad Prism (Version 8.0.2).

MPTP-induced male mice = assay: Olfactory discrimination test, MPTP-induced PD model mice; type: in vivo, mouse
Experimental: MPTP (Sigma-Aldrich) was intraperitoneally (i.p.) injected (30 mg/kg) for 5 days (Day 1-5). […] To test dyskinetic involuntary behavior, an L-DOPA injected group was included, which received 50 mg/kg of L-DOPA and 15 mg/kg of benserazide (Sigma-Aldrich) (i.p.) for 16 days (Day 1–16). All compounds were administered 6 h post-MPTP injection to avoid any effect of compounds on the MPTP metabolism in the brain. Motor and non-motor related behavior tests were performed on the following days as described in Fig. 4a in an assessor- and observer-blinded fashion. Pre-training and baseline setup for motor-related behaviors were performed 3 days prior to the injections. Mice were sacrificed and subjected to immunohistochemistry. Mice were housed at the Animal Care Facilities of McLean Hospital under a 12-h light/12-h dark cycle, ambient temperature and humidity. Animals were handled in accordance with McLean Hospital’s Institutional Animal Care and Use Committee (Protocol #: 2015N000002) and followed National Institutes of Health guidelines.
The olfactory discrimination test was designed based on Prediger et al.. Briefly, mice were placed in a chamber (40 (w) × 20 (d) × 20 (h) cm) segmented with two identical compartments containing fresh sawdust (non-familiar odor) on one side and unchanged sawdust (familiar odor; maintained for 3 days before the test) on the other side. Mice could choose between one or another area by freely passing through an open door, for 5 min. Mice movements were monitored with EthoVision XT version 7.0 (Noldus) and time (s) and distance (cm) traveled in each compartment were recorded and analyzed.

HeLa cells = assay: Autophagic flux, Western blot LC3B and p62, HeLa cells; type: cell-based; conditions: for autophagic flux (in words): HeLa; for Relative LC3B-II experession (normalized to β-actin): Supplementary Figure S7f; for Relative p62 experession (normalized to β-actin): Supplementary Figure S7g
Experimental: Experiments were confirmed by duplicate measurements of the same sample. Quantification of immunoreactive bands was performed using ImageJ software (NIH, Bethesda, MD, USA) and expressed as a relative ratio against β-actin.
The band intensities were quantified using ImageJ and normalized against β-actin.

For `CCN1CCN(c2cc(N3CCN(CC)CC3)nc(NCCNc3ccnc4cc(Cl)ccc34)n2)CC1` [4A7C-301, N^1-(4,6-bis(4-ethylpiperazin-1-yl)pyrimidin-2-yl)-N^2-(7-chloroquinolin-4-yl)ethane-1,2-diamine], the “Relative Nurr1 mRNA expression (fold of Cont.)” value (Nurr1 mRNA; w/ MPP+) was 0.4287 fold of Cont. and 0.414 fold of Cont. and 0.4438 fold of Cont, the “Relative Nurr1 mRNA expression (fold of Cont.)” value (Nurr1 mRNA; w/o MPP+) was 1.004 fold of Cont. and 0.9452 fold of Cont. and 0.974 fold of Cont and the “Relative Nurr1 mRNA expression (fold of +GFP Basal)” value (Nurr1 mRNA; + GFP) was 1.067 fold of +GFP Basal and 0.9407 fold of +GFP Basal and 1.002 fold of +GFP Basal. For the same compound, the “Relative Nurr1 mRNA expression (fold of +GFP Basal)” value (Nurr1 mRNA; + αSynA53T) was 0.5837 fold of +GFP Basal and 0.5113 fold of +GFP Basal and 0.5463 fold of +GFP Basal, the “Relative Nurr1 mRNA expression (fold of +GFP Basal)” value (Nurr1 mRNA; + αSynWT) was 0.7154 fold of +GFP Basal and 0.8045 fold of +GFP Basal and 0.7587 fold of +GFP Basal and the “Nurr1 mRNA levels (in words)” value (Nurr1 mRNA; MPP+ or αSyn overexpression) was “did not alter”. The “Lysosomal pH” value (N27-A cells) was 3.797 and 3.992 and 4.709 and 4.807 and 4.383 and 3.8621 and 3.96 and 4.416 and 4.97 and 4.481 and 4.351 and 4.742 and 4.221 and 3.927, the “olfaction, olfactory discrimination test (in words)” value (MPTP-induced male mice; CQ 40, 4A7C-301 5, L-DOPA 50 mg/kg/day, i.p.) was “significantly restored” and the “Velocity” value (MPTP-induced male mice; Figure 4e, MPTP-induced mice, individual animal values) was 4.45 cm/s and 5.11 cm/s and 5.02 cm/s and 4.95 cm/s and 5.52 cm/s and 4.32 cm/s and 6.05 cm/s and 4.65 cm/s and 4.59 cm/s. For the same compound, the “Duration to stay (sec), New bedding” value (MPTP-induced male mice; Figure 4e, New bedding, MPTP-induced mice, individual animal values) was 163.9 s and 142.98 s and 108.88 s and 102.84 s and 124.52 s and 121.25 s and 140.21 s and 123.92 s and 115.28 s, the “Duration to stay (sec), Old bedding” value (MPTP-induced male mice; Figure 4e, Old bedding, MPTP-induced mice, individual animal values) was 181.18 s and 132.3 s and 153.69 s and 187.59 s and 195.2 s and 172.27 s and 176.41 s and 155.62 s and 172.61 s and the “autophagic flux (in words)” value (HeLa cells; 10-times higher concentrations than 1 µM) was “did not inhibit autophagy”. For the same compound, the “autophagic flux (in words)” value (HeLa cells; LC3B-II and p62) was “completed”, the “Relative LC3B-II experession (normalized to β-actin)” value (HeLa cells; time 0h) was 0.384 and 0.423 and 0.339 and the “Relative LC3B-II experession (normalized to β-actin)” value (HeLa cells; time 0.5h) was 0.455 and 0.539 and 0.396. The “Relative LC3B-II experession (normalized to β-actin)” value (HeLa cells; time 1h) was 0.533 and 0.561 and 0.521, the “Relative LC3B-II experession (normalized to β-actin)” value (HeLa cells; time 2h) was 0.526 and 0.509 and 0.466 and the “Relative LC3B-II experession (normalized to β-actin)” value (HeLa cells; time 4h) was 0.415 and 0.449 and 0.331. The “Relative p62 experession (normalized to β-actin)” value (HeLa cells; time 0h) was 0.809 and 0.904 and 0.909, the “Relative p62 experession (normalized to β-actin)” value (HeLa cells; time 0.5h) was 0.889 and 0.886 and 0.829 and the “Relative p62 experession (normalized to β-actin)” value (HeLa cells; time 1h) was 0.800 and 0.736 and 0.720. For the same compound, the “Relative p62 experession (normalized to β-actin)” value (HeLa cells; time 2h) was 0.670 and 0.672 and 0.687, the “Relative p62 experession (normalized to β-actin)” value (HeLa cells; time 4h) was 0.552 and 0.570 and the “Relative LC3B-II expression (normalized to β-actin)” value (HeLa cells; Supplementary Figure S7i, Conc. 1 µM) was 0.5044 and 0.5121 and 0.5349.
